Key:
Test in all cases: Test E pre-/postemergence greenhouse test, plant response rating 0-100
Type in all cases: in vivo
Settings in all cases: Postemergence, scale 0 to 100
[1] = system: Brazilian crabgrass (Digitaria horizontalis)
Excerpt: (§1) Seeds of plant species selected from corn (Zea mays), soybean (Glycine max), velvetleaf (Abutilon theophrasti), lambsquarters (Chenopodium album), wild poinsettia (Euphorbia heterophylla), palmer pigweed (Amaranthus palmeri), waterhemp (common waterhemp, Amaranthus rudis), surinam grass (Brachiaria decumbens), large (Lg) crabgrass (Digitaria sanguinalis), Brazilian crabgrass (Digitaria horizontalis), fall panicum (Panicum dichotomiflorum), giant foxtail (Setaria faberii), green foxtail (Setaria viridis), goosegrass (Eleusine indica), johnsongrass (Sorghum halepense), ragweed (common ragweed, Ambrosia elatior), barnyardgrass (Echinochloa crus-galli), sandbur (southern sandbur, Cenchrus echinatus), arrowleaf sida (Sida rhombifolia), Italian ryegrass (Lolium multiflorum), dayflower (Virginia (VA) dayflower, Commelina virginica), field bindweed (Convolvulus arvensis), morningglory (Ipomoea coccinea), nightshade (eastern black nightshade, Solanum ptycanthum), kochia (Kochia scoparia), yellow nutsedge (Cyperus esculentus), smartweed (ladysthumb smartweed, Polygonum persicaria), cocklebur (common cocklebur, Xanthium strumarium), and hairy beggarticks (Bidens pilosa), were planted into a silt loam soil and treated preemergence with test chemicals formulated in a non-phytotoxic solvent mixture which included a surfactant.
(§2) At the same time, plants from these crop and weed species and also waterhemp_RES1, (ALS & Triazine resistant common waterhemp, Amaranthus rudis), and waterhemp_RES2, (ALS & HPPD resistant common waterhemp, Amaranthus rudis) were planted in pots containing Redi-Earth® planting medium (Scotts Company, 14111 Scottslawn Road, Marysville, Ohio 43041) comprising spaghnum peat moss, vermiculite, wetting agent and starter nutrients were treated with postemergence applications of test chemicals formulated in the same manner. Plants ranged in height from 2 to 18 cm for postemergence treatments (1- to 4-leaf stage).
(§3) Treated plants and controls were maintained in a greenhouse for 14 to 21 days, after which time all species were compared to controls and visually evaluated. Plant response ratings, summarized in Table E, are based on a scale of 0 to 100 where 0 is no effect and 100 is complete control. A dash (-) response means no test result.

[2] = system: Italian ryegrass (Lolium multiflorum)
Excerpt: as §1, §2, §3

[3] = system: barnyardgrass (Echinochloa crus-galli)
Excerpt: as §1, §2, §3

corn (Zea mays) = system: corn (Zea mays)
Excerpt: as §1, §2, §3

[4] = system: dayflower (Virginia (VA) dayflower, Commelina virginica)
Excerpt: as §1, §2, §3

[5] = system: fall panicum (Panicum dichotomiflorum)
Excerpt: as §1, §2, §3

[6] = system: field bindweed (Convolvulus arvensis)
Excerpt: as §1, §2, §3

[7] = system: sandbur (southern sandbur, Cenchrus echinatus)
Excerpt: as §1, §2, §3

soybean (Glycine max) = system: soybean (Glycine max)
Excerpt: as §1, §2, §3

[8] = system: waterhemp (common waterhemp, Amaranthus rudis)
Excerpt: as §1, §2, §3

[9] = system: wild poinsettia (Euphorbia heterophylla)
Excerpt: as §1, §2, §3

[10] = system: hairy beggarticks (Bidens pilosa)
Excerpt: as §1, §2, §3

## CCn1cc(C(=O)c2cccs2)c(-c2cc(Cl)cc(Cl)c2)n1 [Compound 18]
[1]; 31 g ai/ha
  Plant response rating, Crabgrass, Brazil: 0
[1]; 62 g ai/ha
  Plant response rating, Crabgrass, Brazil: 5
[1]; 125 g ai/ha
  Plant response rating, Crabgrass, Brazil: 15
[1]; 250 g ai/ha
  Plant response rating, Crabgrass, Brazil: 20
[1]; 500 g ai/ha
  Plant response rating, Crabgrass, Brazil: 20
[2]; 31 g ai/ha
  Plant response rating, Ryegrass, Italian: 0
[2]; 62 g ai/ha
  Plant response rating, Ryegrass, Italian: 0
[2]; 125 g ai/ha
  Plant response rating, Ryegrass, Italian: 0
[2]; 250 g ai/ha
  Plant response rating, Ryegrass, Italian: 0
[2]; 500 g ai/ha
  Plant response rating, Ryegrass, Italian: 0
[3]; 31 g ai/ha
  Plant response rating, Barnyardgrass: 0
[3]; 62 g ai/ha
  Plant response rating, Barnyardgrass: 10
[3]; 125 g ai/ha
  Plant response rating, Barnyardgrass: 20
[3]; 250 g ai/ha
  Plant response rating, Barnyardgrass: 25
[3]; 500 g ai/ha
  Plant response rating, Barnyardgrass: 25
Corn (Zea mays); 31 g ai/ha
  Plant response rating, Corn: 0
Corn (Zea mays); 62 g ai/ha
  Plant response rating, Corn: 0
Corn (Zea mays); 125 g ai/ha
  Plant response rating, Corn: 0
Corn (Zea mays); 250 g ai/ha
  Plant response rating, Corn: 0
Corn (Zea mays); 500 g ai/ha
  Plant response rating, Corn: 10
[4]; 31 g ai/ha
  Plant response rating, Dayflower, VA: 0
[4]; 62 g ai/ha
  Plant response rating, Dayflower, VA: 0
[4]; 125 g ai/ha
  Plant response rating, Dayflower, VA: 0
[4]; 250 g ai/ha
  Plant response rating, Dayflower, VA: 0
[4]; 500 g ai/ha
  Plant response rating, Dayflower, VA: 5
[5]; 31 g ai/ha
  Plant response rating, Panicum, Fall: 0
[5]; 62 g ai/ha
  Plant response rating, Panicum, Fall: 0
[5]; 125 g ai/ha
  Plant response rating, Panicum, Fall: 0
[5]; 250 g ai/ha
  Plant response rating, Panicum, Fall: 0
[5]; 500 g ai/ha
  Plant response rating, Panicum, Fall: 10
[6]; 31 g ai/ha
  Plant response rating, Field Bindweed: 0
[6]; 62 g ai/ha
  Plant response rating, Field Bindweed: 15
[6]; 125 g ai/ha
  Plant response rating, Field Bindweed: 25
[6]; 250 g ai/ha
  Plant response rating, Field Bindweed: 25
[6]; 500 g ai/ha
  Plant response rating, Field Bindweed: 35
[7]; 31 g ai/ha
  Plant response rating, Sandbur: 0
[7]; 62 g ai/ha
  Plant response rating, Sandbur: 0
[7]; 125 g ai/ha
  Plant response rating, Sandbur: 0
[7]; 250 g ai/ha
  Plant response rating, Sandbur: 15
[7]; 500 g ai/ha
  Plant response rating, Sandbur: 20
Soybean (Glycine max); 31 g ai/ha
  Plant response rating, Soybean: 0
Soybean (Glycine max); 62 g ai/ha
  Plant response rating, Soybean: 0
Soybean (Glycine max); 125 g ai/ha
  Plant response rating, Soybean: 10
Soybean (Glycine max); 250 g ai/ha
  Plant response rating, Soybean: 20
Soybean (Glycine max); 500 g ai/ha
  Plant response rating, Soybean: 30
[8]; 31 g ai/ha
  Plant response rating, Waterhemp: 50
[8]; 62 g ai/ha
  Plant response rating, Waterhemp: 75
[8]; 125 g ai/ha
  Plant response rating, Waterhemp: 85
[8]; 250 g ai/ha
  Plant response rating, Waterhemp: 90
[8]; 500 g ai/ha
  Plant response rating, Waterhemp: 95
[9]; 31 g ai/ha
  Plant response rating, Poinsettia, Wild: 5
[9]; 62 g ai/ha
  Plant response rating, Poinsettia, Wild: 20
[9]; 125 g ai/ha
  Plant response rating, Poinsettia, Wild: 30
[9]; 250 g ai/ha
  Plant response rating, Poinsettia, Wild: 30
[9]; 500 g ai/ha
  Plant response rating, Poinsettia, Wild: 40

## Fc1ccc(NN=C(c2ccccc2)c2c[nH]nc2-c2cc(Cl)cc(Cl)c2)cc1 [Compound 35]
[1]; 31 g ai/ha
  Plant response rating, Crabgrass, Brazil: 0
[1]; 62 g ai/ha
  Plant response rating, Crabgrass, Brazil: 0
[1]; 125 g ai/ha
  Plant response rating, Crabgrass, Brazil: 0
[1]; 250 g ai/ha
  Plant response rating, Crabgrass, Brazil: 0
[1]; 500 g ai/ha
  Plant response rating, Crabgrass, Brazil: 10
[2]; 31 g ai/ha
  Plant response rating, Ryegrass, Italian: 0
[2]; 62 g ai/ha
  Plant response rating, Ryegrass, Italian: 0
[2]; 125 g ai/ha
  Plant response rating, Ryegrass, Italian: 0
[2]; 250 g ai/ha
  Plant response rating, Ryegrass, Italian: 0
[2]; 500 g ai/ha
  Plant response rating, Ryegrass, Italian: 0
[3]; 31 g ai/ha
  Plant response rating, Barnyardgrass: 0
[3]; 62 g ai/ha
  Plant response rating, Barnyardgrass: 0
[3]; 125 g ai/ha
  Plant response rating, Barnyardgrass: 0
[3]; 250 g ai/ha
  Plant response rating, Barnyardgrass: 0
[3]; 500 g ai/ha
  Plant response rating, Barnyardgrass: 0
Corn (Zea mays); 31 g ai/ha
  Plant response rating, Corn: 0
Corn (Zea mays); 62 g ai/ha
  Plant response rating, Corn: 0
Corn (Zea mays); 125 g ai/ha
  Plant response rating, Corn: 0
Corn (Zea mays); 250 g ai/ha
  Plant response rating, Corn: 0
Corn (Zea mays); 500 g ai/ha
  Plant response rating, Corn: 0
[4]; 31 g ai/ha
  Plant response rating, Dayflower, VA: 0
[4]; 62 g ai/ha
  Plant response rating, Dayflower, VA: 0
[4]; 125 g ai/ha
  Plant response rating, Dayflower, VA: 0
[4]; 250 g ai/ha
  Plant response rating, Dayflower, VA: 0
[4]; 500 g ai/ha
  Plant response rating, Dayflower, VA: 0
[6]; 31 g ai/ha
  Plant response rating, Field Bindweed: 0
[6]; 62 g ai/ha
  Plant response rating, Field Bindweed: 0
[6]; 125 g ai/ha
  Plant response rating, Field Bindweed: 0
[6]; 250 g ai/ha
  Plant response rating, Field Bindweed: 0
[6]; 500 g ai/ha
  Plant response rating, Field Bindweed: 15
[10]; 31 g ai/ha
  Plant response rating, Beggarticks: 85
[10]; 62 g ai/ha
  Plant response rating, Beggarticks: 98
[10]; 125 g ai/ha
  Plant response rating, Beggarticks: 98
[10]; 250 g ai/ha
  Plant response rating, Beggarticks: 98
[10]; 500 g ai/ha
  Plant response rating, Beggarticks: 100
[7]; 31 g ai/ha
  Plant response rating, Sandbur: 0
[7]; 62 g ai/ha
  Plant response rating, Sandbur: 0
[7]; 125 g ai/ha
  Plant response rating, Sandbur: 0
[7]; 250 g ai/ha
  Plant response rating, Sandbur: 0
[7]; 500 g ai/ha
  Plant response rating, Sandbur: 0
Soybean (Glycine max); 31 g ai/ha
  Plant response rating, Soybean: 0
Soybean (Glycine max); 62 g ai/ha
  Plant response rating, Soybean: 0
Soybean (Glycine max); 125 g ai/ha
  Plant response rating, Soybean: 0
Soybean (Glycine max); 250 g ai/ha
  Plant response rating, Soybean: 0
Soybean (Glycine max); 500 g ai/ha
  Plant response rating, Soybean: 0
[8]; 62 g ai/ha
  Plant response rating, Waterhemp: 85
[8]; 125 g ai/ha
  Plant response rating, Waterhemp: 95
[8]; 250 g ai/ha
  Plant response rating, Waterhemp: 98
[8]; 500 g ai/ha
  Plant response rating, Waterhemp: 100
[9]; 31 g ai/ha
  Plant response rating, Poinsettia, Wild: 0
[9]; 62 g ai/ha
  Plant response rating, Poinsettia, Wild: 0
[9]; 125 g ai/ha
  Plant response rating, Poinsettia, Wild: 0
[9]; 250 g ai/ha
  Plant response rating, Poinsettia, Wild: 0
[9]; 500 g ai/ha
  Plant response rating, Poinsettia, Wild: 0

Source: US10167262B2, “Herbicidal substituted 3-arylpyrazoles” (FMC CORPORATION, priority 2014, dated 2019)
